Data from ChEMBL document CHEMBL4145635, “Applying Molecular Networking for the Detection of Natural Sources and Analogues of the Selective Gq Protein Inhibitor FR900359” (J Nat Prod, 2018).
*1 amine or outer side, *2 acyl side, *3 side chain or, on linkers, in order; H or OH if unused. Where a SMILES comes first, the peptide text is derived from it. Bridges are numbered along the chain shown (N, C = ends). [ ]: non-standard residue; d: D form. The star is where a group is joined. Leu(3R-O(AcLeu(3R-OH))) = CC(=O)N[C@H](C(=O)O[C@H](C(C)C)[C@H](N)C(=O)O)[C@H](O)C(C)C; Leu(3R-OH,Nα-propionyl) = CCC(=O)N[C@H](C(=O)*)[C@H](O)C(C)C; X1 = CC(C)[C@@H](O[*:3])[C@H](N[*:1])C(=O)[*:2]; NMeT = CN[C@H](C(=O)O)[C@@H](C)O; dPhLac = O=C(O)[C@H](O)Cc1ccccc1; NMeA = CN[C@@H](C)C(=O)O; NMeDha = C=C(NC)C(=O)O

Experiments:
[1] = Displacement of [3H]PSB-15900 from Gq (unknown origin) expressed in platelet cell membranes; parameters: species or system Homo sapiens
[2] = Inhibition of Gq (unknown origin) coupled with muscarinic M1 receptor expressed in CHO cells assessed as reduction in carbachol-induced IP1 accumulation pretreated for 1 hr followed by carbachol addition measured after 35 mins by HTRF assay; assay type: cell-based

Compound | pIC50 [1] | IC50 [2] [nM]
C=C1C(=O)N[C@@H](C)C(=O)N(C)[C@@H](C)C(=O)N[C@@H]([C@H](OC(=O)[C@@H](NC(=O)CC)[C@H](O)C(C)C)C(C)C)C(=O)N(C)[C@@H]([C@@H](C)OC)C(=O)O[C@H](C(C)C)[C@H](NC(=O)CCO)C(=O)O[C@H](Cc2ccccc2)C(=O)N1C | 7.79 to 8.64 | 2.29 to 16.2
C=C1C(=O)N[C@@H](C)C(=O)N(C)[C@@H](C)C(=O)N[C@@H]([C@H](OC(=O)[C@@H](NC(=O)CC)[C@H](O)C(C)C)C(C)C)C(=O)N(C)[C@@H]([C@@H](C)OC)C(=O)O[C@H](C(C)C)[C@H](NC(C)=O)C(=O)O[C@H](Cc2ccccc2)C(=O)N1C (Ac-[X1][dPhLac][NMeDha]A[NMeA][X1](Leu(3R-OH,Nα-propionyl))[NMeT](Me); ester 1-C) | 7.79 to 8.64 | 2.29 to 16.2
C=C1C(=O)N[C@@H](C)C(=O)N(C)[C@@H](C)C(=O)N[C@@H]([C@H](OC(=O)[C@@H](NC(C)=O)[C@H](O)C(C)C)C(C)C)C(=O)N(C)[C@@H]([C@@H](C)OC)C(=O)O[C@H](C(C)C)[C@H](NC(C)=O)C(=O)O[C@H](Cc2ccccc2)C(=O)N1C (Ac-[X1][dPhLac][NMeDha]A[NMeA][Leu(3R-O(AcLeu(3R-OH)))][NMeT](Me); ester 1-C) | 7.79 to 8.64 | 2.29 to 16.2
